One assay concerns MM.1S cells. The experiment in a line: MM.1S cell growth inhibition assay (CellTiter Glo, 96 h). Type of assay: cell-based. The note with it: MM.1S multiple myeloma cells. Here is the method:
The cell suspension was pipetted into a 15 mL centrifuge tube, and centrifuged at 800 rpm for 3 minutes. The supernatant was discarded. 2 mL of culture medium was added to the centrifuge tube, and the cells were resuspended evenly by gentle pipetting. The cell density was measure by a hemacytometer. Then the cell suspension was diluted to 50,000 cells/mL. The diluted cell suspension was added to a 96-well cell culture plate (Corning, 3599) in 100 μl/well (in column 1, there was 0.5% DMSO-containing medium in each well, and MM.1S cells were seeded in the remaining 88 wells). The plate was placed in a CO2 incubator overnight.
The compound to be tested was prepared into 10 mM solution in DMSO, and then the compound was prepared into a 2 mM solution in DMSO, which was added to the compound plate, and then it was diluted with DMSO in a 4-fold gradient dilution to be 7 points. 0.5 μL of the compound in the plate of the compound to be tested was pipetted into the cell culture plate (the compound was added to rows A to G, and 0.5 μL of DMSO was added to row H as a control). The final concentrations of the compound were 10000 nM, 2500 nM, 625 nM, 156.25 nM, 39.06 nM, 9.77 nM, 2.44 nM. The plate was returned to the CO2 incubator and incubated for 96 h. Then cell survival was detected by using CellTiter Glo reagent (Promega, Cat. No. G7573, Lot. No. 0000310975). The cell culture plate was taken out and equilibrated to room temperature. 100 μL of CellTiter Glo reagent was added to each well. The plate was shaken for 10 min in the dark, and incubated for 10 min. Then the culture plate was put into a multi-functional microplate reader EnSpire (PerkinElmer) for reading, and detected at 400-700 nm. The reading data were recorded. […] XLFit was used to plot the dose-response inhibition curve (four-parameter model [fit=(A+((B−A)/(1+((C/x)^D))))] and calculate the IC50 values.
(Cellular ATP, detected with luciferase, serves as a proxy for viable cell number.)

The next assay relates to MV4-11 cells. As to the kind of experiment: Cell growth inhibition assay, MV4-11 (CellTiter-Glo, 72 h). The assay is classed as cell-based. To be noted: Homo sapiens, MV4-11 acute mononuclear leukemia cells. Here is the method: After seeding the cells in the plate, the cells were placed in a CO2 incubator (37° C., 5% CO2) and incubated for 1 h. […] After adding the compound, the cells were placed in a CO2 incubator (37° C., 5% CO2) for 72 h. CellTiter-Glo reagent (Promega, G7572) was used to determine cell survival. […] The detection result was analyzed and fitted by GraphPad Prism 5.0 software to give IC50 values.

In assay [1] the target is BRD4_BD1 (49-170) protein (Homo sapiens (Human), UniProt O60885). The experiment in a line: AlphaScreen assay: inhibition of binding of BRD4 bromodomain BD1 to acetylated histone H4 polypeptide. To be noted: BRD4 BD1 vs acetylated H4 polypeptide, read-out: ALPHA IC50. The source says:
AlphaScreen kit (Perkin Elmer) was used to detect effect of the compounds on binding of BRD4 bromodomain to acetylated histone H4 polypeptide. […] Each of fusion proteins containing (His)6tag can be recognized and bound by Ni^2+. […] The donor microbeads were coated with streptavidin and can bind to biotinylated acetylated H4 polypeptide. The acceptor microbeads were coated with Ni^2+ ions and can bind to the BD1 protein with (His)6tag. When the BD1 protein recognized the acetylated H4 polypeptide, the donor microbeads and the acceptor microbeads can be brought closer to a certain distance. Within this range, the donor microbeads can produce singlet oxygen after being irradiated with a 680 nm excitation light, and transfer the singlet oxygen to the acceptor microbeads. After a series of cascade chemical reactions, the acceptor microbeads will generate an emission wave of 520-620 nm, which in turn can be detected a signal. In this experiment, the test system was 20 μL, and the compound needs to be diluted in buffer 1 (20 mM HEPES pH 7.4, 150 mM NaCl, 1 mM dithiothreitol). First, a solution of 20 mM compound was consecutively diluted twice, each in 10 times, totally in 100 times to a concentration of 200 μM. […] The recombinant BD1 protein solution and the acetylated histone H4 polypeptide were diluted in the buffer 2 (20 mM HEPES pH 7.4, 150 mM NaCl, 0.01% Triton X-100, 0.1% bovine serum protein (w/v, Sigma), 1 mM dithiothreitol) to 100 nM and 100 nM respectively, to obtain a 8×BD1 protein working solution and a 4× acetylated histone H4 polypeptide working solution. The donor microbeads and the acceptor microbeads are diluted together in the buffer 2, both in the ratio of 1:100, to obtain a 2× microbead mixed working solution. The plate was added with 2.5 μL of BD1 protein working solution and incubated with the compound for 20 min at room temperature, and then added with 5 μL of acetylated histone H4 polypeptide working solution and incubated at room temperature for 5 min, and finally added with 10 μL of microbead mixed working solution and incubated at room temperature for 60 min. […] IC50 values of the compounds at different concentrations for inhibiting the binding of BD1 protein to acetylated H4 polypeptide were calculated by fitting using GraphPad Prism 5.0 software.
A general note: Bead proximity is the source of the signal in Alpha formats.

A word on the IC50: it is the concentration needed to halve the response being measured.

On to `Cc1sc2c(c1C)C(c1ccc(Cl)cc1)=N[C@@H](CC(=O)OC(C)(C)C)c1nnc(C)n1-2` [JQ1, reference compound], for which the IC50 with MM.1S cells was 181 nM.

As to `Cc1cc(-c2cc(NS(C)(=O)=O)ccc2Oc2ccccc2)n2cc[nH]c(=O)c12` [ZB-BD-70], half-maximal inhibition in the assay on MV4-11 cells (IC50) required 33.1 nM.

The molecule `Cc1cc(-c2cc(NS(C)(=O)=O)ccc2Oc2ccccc2)n2c1C(=O)NCC2` [ZB-BD-74] gave a 50% inhibitory concentration (IC50) in the assay on MV4-11 cells of 31.2 nM.

In the case of `CCS(=O)(=O)Nc1ccc(Oc2ccccc2)c(-c2cc(C)c3c(=O)[nH]ccn23)c1` [ZB-BD-77], the IC50 in the assay with MV4-11 cells was found to be 13.4 nM.

Take `CCS(=O)(=O)Nc1ccc(Oc2ccc(F)cc2F)c(-c2cc(C)c3c(=O)[nH]ccn23)c1` [ZB-BD-78]: the IC50 came out at 20.4 nM in the assay with MV4-11 cells and 52.1 nM in the assay on MM.1S cells (Homo sapiens, MM1.S).

As to `Cc1cc(-c2cc(NS(C)(=O)=O)ccc2Oc2ccc(F)cc2F)n2cc[nH]c(=O)c12` [ZB-BD-80], inhibition in the assay with MV4-11 cells was half-maximal at 29.2 nM (IC50).

`Cc1cc(-c2cc(NS(C)(=O)=O)ccc2OCC2CC2)n2cc[nH]c(=O)c12` [ZB-BD-83] showed an IC50 in the assay with MV4-11 cells of 131 nM.

In the assay with MV4-11 cells, `Cc1cc(-c2cc(CS(C)(=O)=O)ccc2Nc2ccccc2)n2cc[nH]c(=O)c12` [ZB-BD-87] showed an IC50 of 78.7 nM.

With `Cc1cc(-c2cc(CS(C)(=O)=O)ccc2Nc2ccc(F)cc2)n2cc[nH]c(=O)c12` [ZB-BD-90], the IC50 in the assay with MV4-11 cells worked out at 76.6 nM.

For `Cc1cc(-c2cc(NS(C)(=O)=O)ccc2OC2CCCCC2)n2cc[nH]c(=O)c12` [ZB-BD-92], the IC50 with MM.1S cells (Homo sapiens, MM1.S) is 39.2 nM.

On to `Cc1cc(-c2cc(NS(C)(=O)=O)ccc2Oc2cccnc2)n2cc[nH]c(=O)c12` [ZB-BD-94], for which the IC50 in assay [1] came out at 14 nM; with MV4-11 cells, 91 nM.

`Cc1cc(-c2cc(NS(C)(=O)=O)ccc2OC2CCOCC2)n2cc[nH]c(=O)c12` [ZB-BD-96] came in with a 50% inhibitory concentration (IC50) in the assay with MV4-11 cells below 100 nM.

In the assay on MV4-11 cells, `Cc1cc(-c2cc(NS(C)(=O)=O)ccc2Oc2ccccc2)n2cn[nH]c(=O)c12` [ZB-BD-102] returned an IC50 below 100 nM.

Consider `Cc1cc(-c2cc(NS(C)(=O)=O)ccc2Oc2ccc(F)cc2F)n2cn[nH]c(=O)c12` [ZB-BD-103], for which, in the assay with MV4-11 cells, the 50% inhibitory concentration (IC50) is below 100 nM.

`Cc1cc(-c2cc(CS(C)(=O)=O)ccc2Oc2ccc(F)cc2F)n2cc[nH]c(=O)c12` [ZB-BD-112] displayed an IC50 with MM.1S cells (Homo sapiens, MM1.S) of 64.3 nM.

For the molecule `CCS(=O)(=O)Cc1ccc(Oc2ccc(F)cc2F)c(-c2cc(C)c3c(=O)[nH]ccn23)c1` [ZB-BD-116], the IC50 in assay [1] stood at 8.8 nM; with MM.1S cells (Homo sapiens, MM1.S), 70.3 nM.

For `Cc1cc(-c2cc(NS(C)(=O)=O)ccc2Oc2cccnc2)n2cn[nH]c(=O)c12` [ZB-BD-120], the IC50 was determined as 36.6 nM in assay [1] and 113 nM with MV4-11 cells.

Consider `Cc1cc(-c2cc(S(C)(=O)=O)ccc2Nc2ccccc2)n2cc[nH]c(=O)c12` [ZB-BD-130], for which the half-inhibitory concentration (IC50) in assay [1] was found to be 326 nM.

In turn, `Cc1cc(-c2cc(CS(C)(=O)=O)cnc2Oc2ccc(F)cc2F)n2cc[nH]c(=O)c12` [ZB-BD-147] gave an IC50 with MM.1S cells (Homo sapiens, MM1.S) of 73.5 nM.

The molecule `Cc1cc(-c2cc(NS(C)(=O)=O)cnc2OC2CCCCC2)n2cc[nH]c(=O)c12` [ZB-BD-179] registered an IC50 in the assay with MM.1S cells (Homo sapiens, MM1.S) of 53.2 nM.

For the molecule `Cc1cc(-c2cc(CS(C)(=O)=O)ccc2OC2CCCCC2)n2cc[nH]c(=O)c12` [ZB-BD-187], the IC50 in the assay on MM.1S cells (Homo sapiens, MM1.S) stood at 22.8 nM.

`Cc1cc(-c2cc(CS(C)(=O)=O)cnc2OC2CCCCC2)n2cc[nH]c(=O)c12` [ZB-BD-202] returned an IC50 in the assay on MM.1S cells (Homo sapiens, MM1.S) of 25.7 nM.

Molecule `CCS(=O)(=O)Cc1cnc(Oc2ccc(F)cc2F)c(-c2cc(C)c3c(=O)[nH]ccn23)c1` [ZB-BD-216] returned an IC50 in the assay on MM.1S cells (Homo sapiens, MM1.S) of 14.2 nM.

The molecule `Cc1ccccc1Oc1ccc(NS(C)(=O)=O)cc1-c1cc(C)c2c(=O)[nH]ccn12` [ZB-BD-232] showed an IC50 in the assay on MV4-11 cells of 25.4 nM.

Turning to `Cc1cccc(C)c1Oc1ccc(NS(C)(=O)=O)cc1-c1cc(C)c2c(=O)[nH]ccn12` [ZB-BD-236], in the assay on MV4-11 cells, half-maximal inhibition (IC50) was put at 48.5 nM.

For `CCS(=O)(=O)Cc1ccc(Oc2c(C)cccc2C)c(-c2cc(C)c3c(=O)[nH]ccn23)c1` [ZB-BD-237], inhibition with MV4-11 cells was half-maximal at 21.6 nM (IC50).

Take `CCS(=O)(=O)c1ccc(Oc2c(C)cccc2C)c(-c2cc(C)c3c(=O)[nH]ccn23)c1` [ZB-BD-239]: in the assay on MV4-11 cells, half-maximal inhibition (IC50) was put at 90.6 nM.

As for `CCS(=O)(=O)c1ccc(Oc2ccccc2C)c(-c2cc(C)c3c(=O)[nH]ccn23)c1` [ZB-BD-240], in the assay on MV4-11 cells, 5.3 nM corresponded to half-maximal inhibition (IC50).

With `CCS(=O)(=O)Cc1cnc(Oc2ccc(F)cc2F)c(-c2cc(C)c3c(=O)[nH]ncn23)c1` [ZB-BD-241], the IC50 in assay [1] was 14.3 nM; in the assay with MV4-11 cells it was 7.9 nM.

These data come from patent publication US11427593B2, “Bromodomain inhibitor compound and use thereof” (SHANGHAI INSTITUTE OF MATERIA MEDICA, CHINESE ACADEMY OF …, priority 2018, dated 2022).
